# Values quoted from earlier work, collected in patent US20120302534A1, “DERIVATIVES OF BETULIN” (priority 2010, published 2012).
# Tested on: HIV
compound,measurement,setting,value
C=C(C)[C@@H]1CC[C@]2(C(=O)O)CC[C@]3(C)[C@H](CC[C@@H]4[C@@]5(C)CC[C@H](OC(=O)CC(C)(C)C(=O)O)C(C)(C)[C@@H]5CC[C@]43C)[C@@H]12 [Bevirimat],reduced HIV viral load by a mean of,"patients who achieved trough levels of >=20 μg/mL and without key baseline Gag polymorphisms at Q369, V370 or T371",1.3 log10/mL
same,viral load reduction versus patients without Gag polymorphisms,"users with Gag polymorphisms at Q369, V370 or T371",significantly lower load reductions
